Results: US7019026B1, “Modulators of Protein Tyrosine Phosphatases (PTPases)” (Novo Nordisk A/S, priority 1999, dated 2006)

Biological target: T1, truncated form of PTP1 B (corresponding to the first 321 amino acids) (Homo sapiens, UniProt P18031)
T1 construct: truncated form of PTP1 B (corresponding to the first 321 amino acids); made in house; host or cells: E. coli
T1 sequence (P18031 1-321): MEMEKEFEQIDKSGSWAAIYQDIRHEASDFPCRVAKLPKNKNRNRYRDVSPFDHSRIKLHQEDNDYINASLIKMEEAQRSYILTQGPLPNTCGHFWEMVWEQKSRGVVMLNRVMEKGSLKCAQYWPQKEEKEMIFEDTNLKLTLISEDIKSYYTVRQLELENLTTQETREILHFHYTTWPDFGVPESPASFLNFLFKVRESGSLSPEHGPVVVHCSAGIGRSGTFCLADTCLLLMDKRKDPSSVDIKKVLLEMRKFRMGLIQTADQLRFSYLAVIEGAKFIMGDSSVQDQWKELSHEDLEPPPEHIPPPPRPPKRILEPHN
Assay: Inhibition of PTP1B (p-nitrophenyl phosphate substrate, enzyme kinetic analysis)
Format: biochemical
Settings: truncated PTP1B expressed in E. coli; substrate p-nitrophenyl phosphate 0.16 to 10 mM; 50 mM HEPES pH 7.0; 60 minutes; read-out: PTP1B K1 values
Experimental: The compounds are evaluated for biological activity with a truncated form of PTP1 B (corresponding to the first 321 amino acids), which was expressed in E. coli and purified to apparent homogeneity using published procedures well-known to those skilled in the art. The enzyme reactions are carried out using standard conditions essentially as described by Burke et al. (Biochemistry 35; 15989–15996 (1996)). The assay conditions are as follows. Appropriate concentrations of the compounds of the invention are added to the reaction mixtures containing different concentrations of the substrate, p-nitrophenyl phosphate (range: 0.16 to 10 mM—final assay concentration). The buffer used was 50 mM HEPES pH 7.0, 100 mM sodium chloride, 0.1% (w/v) bovine serum albumin, 5 mM glutathione, and 1 mM EDTA.). The reaction was started by addition of the enzyme and carried out in microtiter plates at […] for 60 minutes. The reactions are stopped by addition of NaOH. The enzyme activity was determined by measurement of the absorbance at 405 nm with appropriate corrections for absorbance at 405 nm of the compounds and p-nitrophenyl phosphate. The data are analyzed using nonlinear regression fit to classical Michaelis Menten enzyme kinetic models. Inhibition is expressed as Ki values in μM.

In order of rising Ki:
1. O=C(O)C(=O)Nc1sc2c(c1C(=O)O)CCOC2COC1=NS(=O)(=O)c2ccccc21 (centres unmarked) [Example 47]  800 nM
2. COc1ccc2c(c1)C(=O)N(CC1OCCc3c1sc(NC(=O)C(=O)O)c3C(=O)O)C2=O (centres unmarked) [Example 26, 5-(5-Methoxy-1,3-dioxo-1,3-dihydro-isoindol-2-ylmethyl)-2-(oxalyl-amino)-4,7-dihydro-5H-thieno[2,3-c]pyran-3-carboxylic acid]  1200 nM
3. O=C(O)C(=O)Nc1sc2c(c1C(=O)O)CCOC2Cn1c(=O)c2ccccc2[s+]1[O-] (centres unmarked) [Example 55, 7-(1,3-Dioxo-1,3-dihydro-benzo[d]isothiazol-2-ylmethyl)-2-(oxalyl-amino)-4,7-dihydro-5H-thieno[2,3-c]pyran-3-carboxylic acid]  1300 nM
4. O=C(O)C(=O)Nc1sc2c(c1C(=O)O)CCOC2CN1C(=O)C=C(c2ccccc2)S1(=O)=O (centres unmarked) [Example 49, 2-(Oxalyl-amino)-7-(1,1,3-trioxo-5-phenyl-1,3-dihydro-isothiazol-2-ylmethyl)-4,7-dihydro-5H-thieno[2,3-c]pyran-3-carboxylic acid]  1400 nM
5. O=C(O)C(=O)Nc1sc2c(c1C(=O)O)CC(CN1C(=O)c3cccc(O)c3C1=O)OC2 (centres unmarked) [Example 4, 5-(4-Hydroxy-1,3-dioxo-1,3-dihydro-isoindol-2-ylmethyl)-2-(oxalyl-amino)-4,7-dihydro-5-H-thieno[2,3-c]pyran-3-carboxylic acid]  1500 nM
6. O=C(O)C(=O)Nc1sc2c(c1C(=O)O)CCOC2CN1C(=O)S/C(=C\c2c[nH]cn2)C1=O (centres unmarked) [Example 41, 7-(5-(1H-imidazol-4(5)-ylmethylene)-2,4-dioxo-thiazolidin-3-ylmethyl)-2-(oxalyl-amino)-4,7-dihydro-5H-thieno[2,3-c]pyran-3-carboxylic acid]  1500 nM
7. O=C(O)C(=O)Nc1sc2c(c1C(=O)O)CCOC2CN1C(=O)c2ccccc2S1(=O)=O (centres unmarked) [Example 46, 2-(Oxalyl-amino)-7-(1,1,3-trioxo-1,3-dihydro-1H-benzo[d]isothiazol-2-ylmethyl)-4,7-dihydro-5H-thieno[2,3-c]pyran-3-carboxylic acid]  2300 nM
8. O=C(O)C(=O)Nc1sc2c(c1C(=O)O)CCOC2COC1=NS(=O)(=O)C(c2ccccc2)=C1 (centres unmarked) [Example 50, 7-(1,1-Dioxo-5-phenyl-1H-isothiazol-3-yloxymethyl)-2-(oxalyl-amino)-4,7-dihydro-5H-thieno[2,3-c]pyran-3-carboxylic acid]  3000 nM
9. O=C(O)C(=O)Nc1sc2c(c1C(=O)O)CCOC2CN1C(=O)c2cc3c(cc2C1=O)OCO3 (centres unmarked) [Example 27]  3600 nM
10. O=C(O)C(=O)Nc1sc2c(c1C(=O)O)CCOC2CN1C(=O)c2cccc(O)c2C1=O (centres unmarked) [Example 25, 7-(4-Hydroxy-1,3-dioxo-1,3-dihydro-isoindol-2-ylmethyl)-2-(oxalyl-amino)-4,7-dihydro-5H-thieno[2,3-c]pyran-3-carboxylic acid]  7000 nM
11. CC(=O)Nc1ccc(/C=C2\SC(=O)N(CC3OCCc4c3sc(NC(=O)C(=O)O)c4C(=O)O)C2=O)cc1 (centres unmarked) [Example 39, 7-(5-(4-Acetylamino-benzylidene)-2,4-dioxo-thiazolidin-3-ylmethyl)-2-(oxalyl-amino)-4,7-dihydro-5H-thieno[2,3-c]pyran-3-carboxylic acid]  7500 nM
12. O=C(O)C(=O)Nc1sc2c(c1C(=O)O)CCOC2CNC(=O)c1ccc2c(c1)OCO2 (centres unmarked) [Example 28, 7-(((Benzo[1,3]dioxole-5-carbonyl)amino)methyl)-2-(oxalyl-amino)-4,7-dihydro-5H-thieno[2,3-c]pyran-3-carboxylic acid]  8200 nM
13. O=C(O)C(=O)Nc1sc2c(c1C(=O)O)CCOC2CN1C(=O)CSC1=O (centres unmarked) [Example 23, 7-(2,4-Dioxo-Thiazolidin-3-ylmethyl)-2-(oxalyl-amino)-4,7-dihydro-5H-thieno[2,3-c]pyran-3-carboxylic acid]  9700 nM

Test system: not given
Assay: not given
Settings: not given

Compound O=C(O)C(=O)Nc1sc2c(c1C(=O)O)CCOC2CN1C(=O)S/C(=C\c2c[nH]cn2)C1=O (centres unmarked) [Example 41, 7-(5-(1H-imidazol-4(5)-ylmethylene)-2,4-dioxo-thiazolidin-3-ylmethyl)-2-(oxalyl-amino)-4,7-dihydro-5H-thieno[2,3-c]pyran-3-carboxylic acid] has a melting point greater than 250 °C.
